In US11884649B2, “IRE1α inhibitors and uses thereof” (The Regents of the University of California, priority 2020, dated 2024):
“Also recorded” adds a separate entry of the source.

Assays:
XBP1 mRNA splicing = experiment: XBP1 splicing in ER-stressed INS-1 cells; type: cell-based, rat; settings: brefeldin A (BFA) or thapsigargin (Tg)
Procedure: RNA Isolation, Quantitative Real-Time PCR, and Primers
INS-1 or isogenic IRE1α-overexpressing INS-1 cells were plated onto Poly-D-Lysine coated tissue culture plate and grown for 48 hrs. Inhibitors or DMSO were added to the media and incubated for 1 hour at 37° C. with 5% CO2 prior to addition of ER stress agents or Dox as indicated. RNA was isolated from whole cells using either QIAGEN RNeasy Mini kits or Trizol (Invitrogen) and reverse transcribed as above to obtain total cDNA. Then, XBP-1 primers were used to amplify an XBP-1 amplicon spanning the 26 nt intron from the cDNA samples in a regular 3-step PCR. Thermal cycles were: 5 min at 95° C., 30 cycles of 30 s at 95° C., 30 s at 60° C., and 1 min at 72° C., followed by 72° C. for 15 min, and hold at 4° C. Primers used for XBP-1 mRNA splicing were as follows: sense primer XBP1.3 S (5′ […]-3′ (SEQ ID NO:2)) and antisense primer XBP1.2AS (5′-[…]-3′ (SEQ ID NO:3)). PCR fragments were then digested by PstI, resolved on 3% agarose gels, stained with EtBr and quantified by densitometry using ImageJ (NIH). For standard mRNA detection, generally […] total RNA was reverse transcribed using the QuantiTect Reverse Transcription Kit (QIAGEN). For qPCR, we used SYBR green (QIAGEN) and StepOnePlus Real-Time PCR System (Applied Biosystems). Thermal cycles were: 5 min at 95° C., 40 cycles of 15 sec at 95° C., 30 sec at 60° C. […]

IRE1α* = biological target: T1, IRE1α* (Homo sapiens, UniProt O75460); experiment: In vitro Kdimer assay (dimerization affinity from RNase activity); type: biochemical; settings: 50 μM inhibitor
T1 construct: human IRE1α (residues 547-977, IRE1α*) was expressed in SF9 insect cells; His6 (N); made in house; host or cells: Sf9 insect cells (Bac-to-Bac baculovirus)
T1 sequence (O75460 547-977): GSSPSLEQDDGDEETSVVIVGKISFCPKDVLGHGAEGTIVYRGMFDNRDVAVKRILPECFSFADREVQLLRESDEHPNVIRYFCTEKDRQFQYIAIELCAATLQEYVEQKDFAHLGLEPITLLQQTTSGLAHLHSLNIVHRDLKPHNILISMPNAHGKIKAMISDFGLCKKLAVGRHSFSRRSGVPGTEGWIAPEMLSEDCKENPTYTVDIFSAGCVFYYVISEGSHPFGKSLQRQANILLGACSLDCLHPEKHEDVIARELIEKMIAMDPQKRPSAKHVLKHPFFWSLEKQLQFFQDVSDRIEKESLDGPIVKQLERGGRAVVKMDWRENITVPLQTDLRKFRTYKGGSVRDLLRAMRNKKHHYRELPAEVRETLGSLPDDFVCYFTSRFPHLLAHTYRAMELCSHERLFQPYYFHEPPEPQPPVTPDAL
Excerpt: In order to better understand how to achieve an optimal intermediate RNase activation state through engagement of IRE1α's kinase domain, we first established a quantitative in vitro framework for characterizing how ATP-binding site occupancy influences RNase activity. […] This dimeric state-commonly referred to as the “back-to-back” dimer—is characterized by an extensive interface between the kinase and RNase domains of each IRE1α protomer; this dimeric state can be promoted through mass action as IRE1α concentration is raised. […] Furthermore, ligands that occupy the ATP-binding site of the kinase domain can also stimulate IRE1α's RNase activity by promoting dimer formation. We measured the ability of a purified, recombinant kinase/RNase domain construct of IRE1α—called IRE1α*—to cleave a FRET-quenched XBP1 RNA mini-substrate as a function of IRE1α* concentration, in order to provide a quantitative metric of IRE1α's dimer affinity (Kdimer) (FIG. 1B).
IRE1α* or dPIRE1α* was titrated from either 2 μM or 4 μM in two-fold serial dilutions in assay buffer (20 mM Tris, 50 mM sodium chloride, 1 mM MgCl2, 2 mM DTT, 0.05% Triton X-100 (v/v), pH 7.5) and incubated with 50 μM inhibitor for 30 minutes at room temperature. Assays were initiated by adding 10 μL of XBP1-mini substrate (5′-Alex647-CAUGUCCGCAGCGCAUG-IowaBlack-FQ-3′ (SEQ ID NO:1); IDT) to the wells at a final concentration of 6 μM and a final well volume of 30 μL. Fluorescence was detected on a Perkin Elmer Envision Microplate Reader at excitation and emission wavelengths of 650 nm and 665 nm. Reaction process was monitored real time in 10-second intervals for at least 30 minutes. Initial rates of XBP1-cleavage were determined for each respective IRE1α* of dpIRE1α* concentration. Specific activity was then determined by dividing rate (RFU/s) by the respective IRE1α* of dpIRE1α* used (RFU/s*[IRE1α]). Kdimer values were determined by fitting these values using the non-linear regression ‘one-site total’ binding parameter in GraphPad Prism analysis software.

mouse splenocytes = experiment: LPS-induced differentiation of mouse splenocytes into plasma cells (flow cytometry, IgM ELISA); type: cell-based; settings: 1 μg/mL LPS, three days, 20 μM-1.25 μM
Procedure: Therefore, we sought to compare the sensitivity of this process to both KIRAs and PAIRs. To this end, we assessed how KIRA8, KIRA9, and PAIR1 affected the differentiation of lipopolysaccharide (LPS)-treated mouse splenocytes into antibody-secreting plasma cells. Total live number of CD19+ B-cells were assessed and plasma cells were quantified on the basis of B220 downregulation and CD138 expression by flow cytometry (FIGS. 6A-6C, FIG. 24). Concomitantly, secreted IgM was measured in the cell culture supernatants by ELISA (FIG. 6C).
Splenocyte Isolation and Differentiation
Red blood cells were lysed with ammonium chloride potassium buffer. Splenocytes were plated at 2.5×10^5 cells/well in a 96-well round bottom plate in complete media. The splenocytes were treated with or without 1 μg/ml LPS 026:b6 (Sigma). […] The splenocytes were incubated for three days in a 37° C., 5% CO2 humidified chamber before collection and staining for flow cytometry.
Cells from the plasma cell assay were collected in a 96-well plate and washed with PBS followed by staining with LIVE/DEAD Fixable Near-IR Dead Cell Stain kit (Invitrogen). Reagent was reconstituted as per manufacturer's instructions, diluted 1:1000 in PBS, and cells were stained in 100 μL on ice for 20 minutes. The cells were then washed with FACS buffer, PBS (Corning), 2 mM EDTA and 2% heat inactivated fetal bovine serum (Omega Scientific). The cells were then stained with 50 μL antibody cocktail consisting of anti-CD19 (BioLegend), anti-CD45R (BD Pharmingen), and anti-CD138 (BioLegend) in FACS buffer on ice for 15 minutes. Cells were resuspended in FACS buffer and combined with an equal volume of 4% paraformaldehyde with 5000 Countbright Absolute Counting Beads (Thermofisher). Stained cells were analyzed on a Fortessa (Becton Dickinson). Data analysis was performed using FlowJo (v10) software (Treestar Inc.).
Media supernatants from the in vitro plasma cell differentiation assay were measured for secreted IgM by ELISA. […] Wash buffer (PBS with 0.05% Tween-20 (v/v)) was used for all washing steps and blocked with PBS-BB (PBS without Ca^2+/Mg^2+, 1% BSA (w/v), 0.05% Tween-20 (v/v)). Supernatants from LPS stimulated samples were diluted (1:100) and media only samples were diluted (1:10) in PBS-BB. […] ELISA plates were developed with TMB (Sigma) and stopped with 1N sulfuric acid. Absorbance was measured at 450 nm using spectrophotometer (Spectramax M5, Molecular Devices). Sample IgM concentration values were calculated with SoftMaxPro software.

## Cc1ccc2c(NS(=O)(=O)c3ccccc3Cl)cccc2c1Oc1ncccc1-c1ccnc(N[C@H]2CCCNC2)n1 [KIRA8, reference compound]
XBP1 mRNA splicing
  spliced XBP1: completely suppresses XBP1 splicing; also recorded: almost completely suppressed
IRE1α*
  dimerization affinity of IRE1α* / formation of RNase active dimers: unable to form RNase active dimers at any concentration tested
Mouse splenocytes
  IgM secretion: reductions in both plasma cell differentiation and IgM secretion in a dose-dependent manner
  plasma cell (CD138+) differentiation: dose-dependently inhibits B-cell differentiation into plasma cells; also recorded: reductions in both plasma cell differentiation and IgM secretion in a dose-dependent manner
